Assay results from paper PMC7472354, “Enhanced Antimicrobial Activity of N-Terminal Derivatives of a Novel Brevinin-1 Peptide from The Skin Secretion of Odorrana schmackeri” (Toxins, 2020).
≈ marks a conversion by molar mass, not a printed value. Like-named read-outs stand apart in the source and are kept apart here. Where a SMILES comes first, the peptide text is derived from it. Bridges are numbered along the chain shown (N, C = ends).

Key:
[1] = tested on: Candida albicans (NCPF 1467); format: cell-based; settings: for MBC: NCPF 1467, 18 h; for MIC: NCPF 1467, 24 h
Method: (§1) The minimal inhibitory concentrations (MICs) and minimum bactericidal concentrations (MBCs) were evaluated to determine the antimicrobial activity of synthetic peptides. The microorganisms employed in the study are two kinds of Gram-negative bacteria, Escherichia coli (NCTC 10418) and Pseudomonas aeruginosa (ATCC 27853), three kinds of Gram-positive bacteria, Staphylococcus aureus (NCTC 10788), Methicillin-resistant Staphylococcus aureus (MRSA, ATCC 12493) and Enterococcus faecalis (NCTC 12697) and a yeast, Candida albicans (NCPF 1467), as indicated previously. […] The sterilised broth medium was used as the positive control and the microorganism cultured in the medium only was treated as the negative control. […] The MBC results were defined as the lowest bactericidal concentrations of peptide. The antimicrobial activity of peptides was tested by monitoring the absorbance at 550 nm using an ELISA plate reader (Biolise BioTek EL808, Winooski, VT, USA).

[2] = tested on: Enterococcus faecalis (NCTC 12697); format: cell-based; settings: for MBC: NCTC 12697, 18 h; for MIC: NCTC 12697, 24 h
Method: as §1

[3] = tested on: Escherichia coli (NCTC 10418); format: cell-based; settings: for MBC: NCTC 10418, 18 h; for MIC: NCTC 10418, 24 h
Method: as §1

[4] = tested on: Methicillin-resistant Staphylococcus aureus (MRSA, ATCC 12493); format: cell-based; settings: for MBC: ATCC 12493, 18 h; for MIC: ATCC 12493, 24 h
Method: as §1

[5] = tested on: Pseudomonas aeruginosa (ATCC 27853); format: cell-based; settings: for MBC: ATCC 27853, 18 h; for MIC: ATCC 27853, 24 h
Method: as §1

[6] = tested on: Staphylococcus aureus (NCTC 10788); format: cell-based; settings: for MBC: NCTC 10788, 18 h; for MIC: NCTC 10788, 24 h
Method: as §1

[7] = tested on: MRSA (ATCC 12493) biofilm; format: cell-based, Staphylococcus aureus
Method: (§2) The anti-biofilm effects of all synthetic peptides were evaluated, which was described in our previous study. The organisms, including S. aureus (NCTC 10788), E. coli (NCTC 10418), MRSA (ATCC 12493), E. faecalis (NCTC 12697) and P. aeruginosa (ATCC 27853), were investigated in this study. Gram-positive bacteria were cultured in the TSB broth and Gram-negative bacteria were cultured in the LB broth. The anti-biofilm effects were determined based on the MBIC and MBEC of all the peptides. For the determination of MBIC, 5 × 10^5 CFU/mL bacterial cultures were incubated with the peptides concentrations (ranging from 1 µM to 512 µM) for 24 h. The sterilised medium and bacterial suspension without any treatment were used as the negative controls and positive controls, respectively. After incubation, wells were rinsed, fixed, stained, washed and dissolved with phosphate buffer saline (PBS), methanol (90%, v/v), crystal violet (0.1%, w/v), sterile deionised water and acetic acid (30%, v/v), respectively. The absorbance of dissolved stain was measured at a 595 nm using a Synergy HT plate reader (Biotech, Minneapolis, MN, USA).
(§3) For the MBEC assay, the peptide concentrations were prepared as above. The bacteria were cultured in the 96 well plate for 24–48 h, which allowed the formation of mature biofilm in the plate. Then, the bacterial culture was removed from the plate. The biofilm was further washed to remove the planktonic bacteria using PBS. Then, the fresh broth that contained different peptide concentrations was added in the plate for incubation of 24 h at 37 °C. After incubation, the plate was stained by crystal violet as mentioned above. The definition of MBIC can be given when compared to the negative control group (≥90%, MBIC90; ≥50%, MBIC50). The definition of the MBEC can be given when compared to the negative control group (≥90%, MBEC90; ≥50%, MBEC50).

[8] = tested on: S. aureus (NCTC 10788) biofilm; format: cell-based, Staphylococcus aureus
Method: as §2, §3

[9] = tested on: E. faecalis (NCTC 12697) biofilm; format: cell-based, Enterococcus faecalis
Method: as §2, §3

[10] = tested on: E. coli (NCTC 10418) biofilm; format: cell-based, Escherichia coli
Method: as §2, §3

[11] = tested on: P. aeruginosa (ATCC 27853) biofilm; format: cell-based, Pseudomonas aeruginosa
Method: as §2, §3

[12] = tested on: MRSA; format: cell-based, Staphylococcus aureus; settings: 24 h
Method: (§4) The minimal inhibitory concentrations (MICs) and minimum bactericidal concentrations (MBCs) were evaluated to determine the antimicrobial activity of synthetic peptides. The microorganisms employed in the study are two kinds of Gram-negative bacteria, Escherichia coli (NCTC 10418) and Pseudomonas aeruginosa (ATCC 27853), three kinds of Gram-positive bacteria, Staphylococcus aureus (NCTC 10788), Methicillin-resistant Staphylococcus aureus (MRSA, ATCC 12493) and Enterococcus faecalis (NCTC 12697) and a yeast, Candida albicans (NCPF 1467), as indicated previously. For antimicrobial assays, 5 × 10^5 CFU/mL of bacterial suspensions were incubated with the concentrations of the peptides (ranging from 1 µM to 512 µM) for 24 h at 37 °C. The sterilised broth medium was used as the positive control and the microorganism cultured in the medium only was treated as the negative control. […] The MBC results were defined as the lowest bactericidal concentrations of peptide. The antimicrobial activity of peptides was tested by monitoring the absorbance at 550 nm using an ELISA plate reader (Biolise BioTek EL808, Winooski, VT, USA).
(§5) The activity of peptides in the different environmental conditions including different concentrations of NaCl (50, 100 and 150 mM) and MgCl2 (0.5, 1 and 2 mM), pH (6, 7 and 8), temperature (50 °C, 75 °C and 100 °C) and 10% fetal bovine serum (FBS) solution, was evaluated using the broth microdilution assay as described in the antimicrobial activity assay. For the stability test of peptides in the presence of salt, pH and serum, these conditions were adjusted in the fresh medium that was further used to dilute the bacteria suspension. The peptides were also dissolved in such broth and mixed with the bacteria suspension in the 96 well plate. For the thermal stability test, the peptides were dissolved in the water and incubated at different temperature for 15 min before dosing in the plate. The sterilised broth with corresponding conditions was used as the positive controls, and the bacteria suspension without any treatment was used as the negative controls.

[13] = tested on: S. aureus; format: cell-based, Staphylococcus aureus; settings: 24 h
Method: as §4, §5

[14] = tested on: E. faecalis; format: cell-based, Enterococcus faecalis; settings: 24 h
Method: as §4, §5

[15] = tested on: C. albicans; format: cell-based, Candida albicans; settings: 24 h
Method: as §4, §5

[16] = tested on: E. coli; format: cell-based, Escherichia coli; settings: 24 h
Method: as §4, §5

[17] = tested on: P. aeruginosa; format: cell-based, Pseudomonas aeruginosa; settings: 24 h
Method: as §4, §5

`CC[C@H](C)[C@H](NC(=O)CNC(=O)[C@@H]1CCCN1C(=O)[C@H](CC(C)C)NC(=O)[C@@H](N)Cc1ccccc1)C(=O)N[C@@H](CC(C)C)C(=O)N[C@@H](CCCCN)C(=O)N[C@H](C(=O)N[C@@H](C)C(=O)N[C@@H](C)C(=O)N[C@@H](CC(N)=O)C(=O)N[C@H](C(=O)N[C@H](C(=O)N1CCC[C@H]1C(=O)NCC(=O)N[C@H](C(=O)N[C@H](C(=O)N[C@H]1CSSC[C@@H](C(=O)O)NC(=O)[C@H](CCCCN)NC(=O)[C@H](CCCCN)NC(=O)[C@H]([C@@H](C)O)NC(=O)[C@H]([C@@H](C)CC)NC(=O)[C@H](C)NC1=O)[C@@H](C)CC)C(C)C)C(C)C)C(C)C)C(C)C` [Brevinin-1OS] (H-FLPGILKVAANVVPGVICAITKKC-OH; disulfide 18-24) showed an MBC [1] of 64 µM (≈ 157 µg/mL), an MIC [1] of 8 µM (≈ 19.6 µg/mL) and an MBC [2] of 16 µM (≈ 39.2 µg/mL). The MIC [2] was 8 µM (≈ 19.6 µg/mL), the MBC [3] was > 512 µM and the MIC [3] was 128 µM (≈ 314 µg/mL). The MBC [4] was 32 µM (≈ 78.5 µg/mL), the MIC [4] was 32 µM (≈ 78.5 µg/mL) and the MBC [5] was > 512 µM. For the same molecule, the MIC [5] was 256 µM (≈ 628 µg/mL), the MBC [6] was 16 µM (≈ 39.2 µg/mL) and the MIC [6] was 4 µM (≈ 9.81 µg/mL). The MBEC50 [7] was 64 µM, the MBEC90 [7] was 256 µM and the MBIC50 ([7]; ATCC 12493, 24 h) was 8 µM. It also gave an MBIC90 ([7]; ATCC 12493, 24 h) of 32 µM, an MBEC50 [8] of 32 µM and an MBEC90 [8] of 64 µM. For the same molecule, the MBIC50 ([8]; NCTC 10788, 24 h) was 4 µM, the MBIC90 ([8]; NCTC 10788, 24 h) was 4 µM and the MBEC50 [9] was 256 µM. For the same molecule, the MBEC90 [9] was > 512 µM, the MBIC50 ([9]; NCTC 12697, 24 h) was 32 µM and the MBIC90 ([9]; NCTC 12697, 24 h) was 64 µM. For the same molecule, the MBEC50 [10] was > 512 µM, the MBEC90 [10] was > 512 µM and the MBIC50 ([10]; NCTC 10418, 24 h) was 128 µM. The MBIC90 ([10]; NCTC 10418, 24 h) was 128 µM, the MBEC50 [11] was 512 µM and the MBEC90 [11] was 512 µM. It also gave an MBIC50 ([11]; ATCC 27853, 24 h) of 256 µM, an MBIC90 ([11]; ATCC 27853, 24 h) of 256 µM and an MIC ([12]; pH 6) of 64 µM (≈ 157 µg/mL). The MIC ([12]; pH 7) was 8 µM (≈ 19.6 µg/mL), the MIC ([12]; pH 8) was 4 µM (≈ 9.81 µg/mL) and the MIC ([13]; pH 6) was 8 µM (≈ 19.6 µg/mL). For the same molecule, the MIC ([13]; pH 7) was 4 µM (≈ 9.81 µg/mL), the MIC ([13]; pH 8) was 4 µM (≈ 9.81 µg/mL) and the MIC ([14]; pH 6) was 128 µM (≈ 314 µg/mL). The MIC ([14]; pH 7) was 32 µM (≈ 78.5 µg/mL), the MIC ([14]; pH 8) was 16 µM (≈ 39.2 µg/mL) and the MIC ([15]; pH 6) was 64 µM (≈ 157 µg/mL). The MIC ([15]; pH 7) was 16 µM (≈ 39.2 µg/mL), the MIC ([15]; pH 8) was 16 µM (≈ 39.2 µg/mL) and the MIC ([16]; pH 6) was 32 µM (≈ 78.5 µg/mL). It also gave an MIC ([16]; pH 7) of 32 µM (≈ 78.5 µg/mL), an MIC ([16]; pH 8) of 128 µM (≈ 314 µg/mL) and an MIC ([17]; pH 6) of 128 µM (≈ 314 µg/mL). It also gave an MIC ([17]; pH 7) of 256 µM (≈ 628 µg/mL) and an MIC ([17]; pH 8) of 256 µM (≈ 628 µg/mL).

In the case of `CC[C@H](C)[C@H](NC(=O)[C@@H](NC(=O)CNC(=O)[C@@H]1CCCN1C(=O)[C@@H](NC(=O)[C@@H](NC(=O)[C@H](CC(N)=O)NC(=O)[C@H](C)NC(=O)[C@H](C)NC(=O)[C@@H](NC(=O)[C@H](CCCCN)NC(=O)[C@H](CC(C)C)NC(=O)[C@@H](NC(=O)CNC(=O)[C@@H]1CCCN1C(=O)[C@H](CC(C)C)NC(=O)[C@@H](N)Cc1ccccc1)[C@@H](C)CC)C(C)C)C(C)C)C(C)C)C(C)C)C(=O)O` [OSa] (H-FLPGILKVAANVVPGVI-OH), the MBC [1] is reported as > 512 µM, the MIC [1] is reported as > 512 µM and the MBC [2] is reported as > 512 µM. The MIC [2] was > 512 µM, the MBC [3] was > 512 µM and the MIC [3] was > 512 µM. The MBC [4] was > 512 µM, the MIC [4] was > 512 µM and the MBC [5] was > 512 µM. The MIC [5] was > 512 µM, the MBC [6] was > 512 µM and the MIC [6] was > 512 µM.
